Source: patent US20170051149A1, “AZOARYLS AS REVERSIBLY MODULATABLE TUBULIN INHIBITORS” (ECOLE NORMALE SUPERIEURE DE LYON, priority 2014, published 2017)

Key:
Format in all cases: cell-based
[1] = test system: HeLa cells; assay: MTT assay; conditions: 48 h
Text: The cytotoxic properties of I.1 were subsequently confirmed with another method, using the quantification of mitochondrial dehydrogenase activity of cells as determined by the level of 3-(4.5-dimethylthiazol-2-yl)-2.5-diphenyl tetrazolium bromide (MTT) reduction to its purple formazan, according to standard protocol^[30]. […] Cells were kept in the dark, or exposed to a pulsed toxic regime of 390 nm only, or exposed to a strong rescue protocol with pulses of 390 nm then 505 nm light. Pulses of light were applied every 30 s; 390 nm light pulses lasted 150 ms every 30 s, while the 505 nm light pulses were applied for 500 ms; in the strong rescue regime, the 505 nm pulse was synchronised so that it began immediately after the 390 nm pulse ended.
Cellular viability was measured 48 h later, namely, cells were incubated with MTT for three hours and after dissolution of the formazan crystals with DMSO, absorbance at 550 nm was measured using a FLUOstar Omega microplate reader. Results are shown in Table 5 below and are expressed as a fold growth relative to the control growth of the cells treated only with a co-solvent (0.5% MeCN) and represent mean and standard deviation of quadruplicates of the optical density values, which are proportional to the cell number.

[2] = test system: HepG2 cells; assay: cell cycle analysis by PI flow cytometry; conditions: 48 h
Procedure: The effect of compound I.1 on cell cycle progression was assessed by flow cytometry. Briefly, following the application of compound I.1 and exposure to the indicated light regime, cells were harvested on ice and incubated in a hypotonic buffer [0.1% sodium citrate, 0.1% Triton X-100 and 50 μg/mL propidium iodide (PI)] for 30 min at 4° C. Following the PI staining cells were analysed by flow cytometry using FACSCalibur flow cytometer (Becton Dickinson, Heidelberg, Germany) and Cell Quest Pro Software (Becton Dickinson). Subsequently the cell cycle analysis was performed using the FlowJo software (Tree Star Inc., Ashland, Oreg., USA).

[3] = test system: HeLa; assay: membrane permeability, PI uptake in nonpermeabilized cells; conditions: 70 h
Procedure: (§1) Membrane integrity was assessed as a marker of cellular viability, via examining the uptake of propidium iodide (PI) in nonpermeabilized cells according to a standard protocol. Namely, cells were harvested and incubated with 5 μg/mL PI in PBS containing 2% FCS (foetal calf serum), and immediately analysed by flow cytometry using a FACSCalibur flow cytometer.

[4] = test system: Jurkat cells; assay: as above; conditions: 48 h
Procedure: as §1

[5] = test system: MDA-MB-231; assay: as above; conditions: 70 h
Procedure: as §1

[6] = test system: MDA-MB-231 cells; assay: in cellulo tubulin imaging, immunostaining of microtubule cytoskeleton; conditions: 20 h; for effect on microtubule structure: 390 nm regimen (200 ms every 2 min)
Procedure: In order to investigate the influence of compound I.1 on microtubule structure in cellulo, immunostaining of the microtubule cytoskeleton in MDA-MB-231 cells was performed. Cells were treated with compound I.1 and then kept in dark conditions, or exposed to 390 nm light (200 ms every 2 min), or exposed to a rescue protocol with sequential pulses of 390 nm light (200 ms every 2 min) then immediately 505 nm (600 ms every 2 min). After 20 h of treatment cells were fixed, stained and subjected to confocal microscopy.
Briefly, prior to analysis, cells were washed with pre-warmed PBS then cell extraction buffer (80 mM piperazine-N,N′-bis(2-ethanesulfonic acid) [abbreviated PIPES], 1 mM MgCl2, 5 mM EGTA-K and 0.5% Triton X-100, at pH 6.8) was added to remove monomeric and dimeric tubulin subunits. After 30 s of extraction, cells were fixed for 10 min with 0.5% glutaraldehyde. Following glutaraldehyde quenching with 0.1% NaBH4 in PBS for 7 min, coverslips were blocked with PBS containing 0.2% BSA (bovine serum albumin). Immunostaining was performed using anti-α-tubulin antibody (ab18251) and the AlexaFluor 488 secondary antibody (A 11008), purchased from Abcam (Cambridge, UK) and Invitrogen (Darmstadt, Germany), respectively. Hoechst 33342 (bisbenzimide), purchased from Sigma-Aldrich (catalogue number B2261; Taufkirchen, Germany), was used at a concentration of 1 ug/ml for nuclear staining. Cells were mounted with PermaFluor™ mounting medium (Beckman Coulter) and analyzed with a Zeiss LSM 510 Meta confocal microscope (Jena, Germany). Acquired images were processed using the ImageJ program (National Institutes of Health) and representative images are collected in FIG. 7.

[7] = 200 nM, 390 nm (1 s every 15 min)
[8] = 600 nM, 390 nm (1 s every 15 min)
[9] = 1.5 μM, 390 nm (1 s every 15 min)
[10] = 5 μM, 390 nm (1 s every 15 min)

COc1ccc(N=Nc2cc(OC)c(OC)c(OC)c2)cc1O [I.1, 2-methoxy-5-((3,4,5-trimethoxyphenyl)diazenyl)phenol]
mean fold growth ([1]; 10 nM, 390 nm (150 ms every 30 s)): 0.95 fold | mean fold growth ([1]; 10 nM, Dark): 0.93 fold | mean fold growth ([1]; 20 nM, 390 nm (150 ms every 30 s)): 0.96 fold | mean fold growth ([1]; 20 nM, Dark): 1.02 fold | mean fold growth ([1]; 50 nM, 390 nm (150 ms every 30 s)): 0.96 fold | mean fold growth ([1]; 50 nM, Dark): 1.01 fold | mean fold growth ([1]; 100 nM, 390 nm (150 ms every 30 s)): 0.93 fold | mean fold growth ([1]; 100 nM, dark): 1.01 fold | mean fold growth ([1]; 400 nM, 390 nm (150 ms every 30 s)): 0.28 fold | mean fold growth ([1]; 400 nM, dark): 1.00 fold | mean fold growth ([1]; 400 nM, rescue: 390 nm (150 ms) then 505 nm (500 ms) every 30 s): 0.46 fold | mean fold growth ([1]; 600 nM, 390 nm (150 ms every 30 s)): 0.21 fold | mean fold growth ([1]; 600 nM, dark): 1.05 fold | mean fold growth ([1]; 800 nM, 390 nm (150 ms every 30 s)): 0.17 fold | mean fold growth ([1]; 800 nM, Dark): 0.98 fold | mean fold growth ([1]; 1 μM, 390 nm (150 ms every 30 s)): 0.18 fold | mean fold growth ([1]; 1 μM, dark): 0.93 fold | mean fold growth ([1]; 2 μM, 390 nm (150 ms every 30 s)): 0.21 fold | mean fold growth ([1]; 2 μM, Dark): 0.98 fold | toxicity ([1]; in the dark, 10 nM-2 μM): no toxicity | concentration inducing severe cytotoxicity ([1]; upon exposure to the light (390 nm)): ≥ 400 nM | mean % G2/M phase ([2]; 100 nM, 390 nm (250 ms every 15 s)): 7.8% | mean % G2/M phase ([2]; 100 nM, dark): 10.0% | mean % G2/M phase ([2]; 600 nM, 390 nm (250 ms every 15 s)): 9.4% | mean % G2/M phase ([2]; 600 nM, dark): 8.6% | mean % G2/M phase ([2]; 1 μM, 390 nm (250 ms every 15 s)): 10.7% | mean % G2/M phase ([2]; 1 μM, dark): 10.1% | mean % G2/M phase ([2]; 3 μM, 390 nm (250 ms every 15 s)): 9.3% | mean % G2/M phase ([2]; 3 μM, dark): 11.2% | mean % G2/M phase ([2]; 10 μM, 390 nm (250 ms every 15 s)): 42.3% | mean % G2/M phase ([2]; 10 μM, dark): 11.7% | mean % cells PI+ [3, 7]: 4.5% | mean % cells PI+ ([3]; 200 nM, dark): 4.5% | mean % cells PI+ [3, 8]: 8.2% | mean % cells PI+ ([3]; 600 nM, dark): 4.3% | mean % cells PI+ [3, 9]: 46.1% | mean % cells PI+ ([3]; 1.5 μM, dark): 4.2% | mean % cells PI+ [3, 10]: 73.0% | mean % cells PI+ ([3]; 5 μM, dark): 5.1% | mean % cells PI+ ([4]; 50 nM, 390 nm (350 ms every 5 min)): 1.3% | mean % cells PI+ ([4]; 50 nM, Dark): 1.6% | mean % cells PI+ ([4]; 100 nM, 390 nm (350 ms every 5 min)): 2.3% | mean % cells PI+ ([4]; 100 nM, dark): 2.2% | mean % cells PI+ ([4]; 200 nM, 390 nm (350 ms every 5 min)): 3.4% | mean % cells PI+ ([4]; 200 nM, dark): 2.3% | mean % cells PI+ ([4]; 400 nM, 390 nm (350 ms every 5 min)): 6.3% | mean % cells PI+ ([4]; 400 nM, dark): 2.3% | mean % cells PI+ ([4]; 600 nM, 390 nm (350 ms every 5 min)): 8.1% | mean % cells PI+ ([4]; 600 nM, dark): 2.8% | mean % cells PI+ [5, 7]: 4.4% | mean % cells PI+ ([5]; 200 nM, dark): 5.0% | mean % cells PI+ [5, 8]: 8.2% | mean % cells PI+ ([5]; 600 nM, dark): 4.6% | mean % cells PI+ [5, 9]: 24.1% | mean % cells PI+ ([5]; 1.5 μM, dark): 4.3% | mean % cells PI+ [5, 10]: 47.2% | mean % cells PI+ ([5]; 5 μM, dark): 5.0% | effect on microtubule structure ([6]; 1.5 μM): degradation of the microtubule cytoskeleton | effect on microtubule structure ([6]; 4 μM): complete microtubule breakdown plus fragmentation of the nuclei | nuclear fragmentation and microtubule destruction ([6]; kept in the dark): not observed | effect of rescue protocol on signs of cytotoxic effects ([6]; rescue: 390 nm (200 ms) then 505 nm (600 ms) every 2 min): dose-dependent reduction of the signs of cytotoxic effects
